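Five compound concentrations were applied to cells in 96-well plates for 48 hours; endpoints were derived by simple linear interpolation of the resulting dose-response curve. The concentration for full growth arrest is given as TGI.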
Legend:
Assay in all cases: inhibition of tumour cell growth, NCI panel, 48 h
HT29 colon = system: HT29 colon
HCT-116 colon = system: HCT-116 colon
UO-31 renal = system: UO-31 renal
LOX IMVI melanoma = system: LOX IMVI melanoma
HS 578T breast = system: HS 578T breast
HCT-15 colon = system: HCT-15 colon
SK-OV-3 ovarian = system: SK-OV-3 ovarian
SK-MEL-28 melanoma = system: SK-MEL-28 melanoma
COLO 205 colon = system: COLO 205 colon
MDA-MB-435 = system: MDA-MB-435
RPMI-8226 leukemia = system: RPMI-8226 leukemia
NCI-H226 lung = system: NCI-H226 lung
NCI/ADR-RES ovarian = system: NCI/ADR-RES ovarian
KM12 colon = system: KM12 colon
NCI-H23 lung = system: NCI-H23 lung
OVCAR-4 ovarian = system: OVCAR-4 ovarian
SF-295 CNS = system: SF-295 CNS
BT-549 breast = system: BT-549 breast
ACHN renal = system: ACHN renal
A549 NSCLC = system: A549 NSCLC
SW-620 colon = system: SW-620 colon
OVCAR-5 ovarian = system: OVCAR-5 ovarian
HOP-62 NSCLC = system: HOP-62 NSCLC
UACC-257 melanoma = system: UACC-257 melanoma
K-562 leukemia = system: K-562 leukemia
PC-3 prostate = system: PC-3 prostate
A498 renal = system: A498 renal
CAKI-1 renal = system: CAKI-1 renal
HOP-92 NSCLC = system: HOP-92 NSCLC
SR leukemia = system: SR leukemia
SNB-19 CNS = system: SNB-19 CNS
786-0 renal = system: 786-0 renal
NCI-H522 lung = system: NCI-H522 lung
MDA-N = system: MDA-N
SNB-75 CNS = system: SNB-75 CNS
HL-60(TB) leukemia = system: HL-60(TB) leukemia
MCF7 breast = system: MCF7 breast
UACC-62 melanoma = system: UACC-62 melanoma
CCRF-CEM leukemia = system: CCRF-CEM leukemia
SF-268 CNS = system: SF-268 CNS
NCI-H460 lung = system: NCI-H460 lung
OVCAR-8 ovarian = system: OVCAR-8 ovarian
DU-145 prostate = system: DU-145 prostate
OVCAR-3 ovarian = system: OVCAR-3 ovarian
IGROV1 ovarian = system: IGROV1 ovarian
EKVX NSCLC = system: EKVX NSCLC
U251 CNS = system: U251 CNS
M14 melanoma = system: M14 melanoma
MOLT-4 leukemia = system: MOLT-4 leukemia
TK-10 renal = system: TK-10 renal
T-47D breast = system: T-47D breast
SK-MEL-5 melanoma = system: SK-MEL-5 melanoma
HCC-2998 colon = system: HCC-2998 colon
SK-MEL-2 melanoma = system: SK-MEL-2 melanoma
SN12C renal = system: SN12C renal
MALME-3M melanoma = system: MALME-3M melanoma
SF-539 CNS = system: SF-539 CNS

Q: Which results are given for `Oc1ccc(CNCc2ccccc2)c2cccnc12`?
A: TGI (HT29 colon): > 100 µM; TGI (HCT-116 colon): > 100 µM; TGI (UO-31 renal): > 24.4 µM; TGI (LOX IMVI melanoma): > 100 µM; TGI (HS 578T breast): > 100 µM; TGI (HCT-15 colon): > 100 µM; TGI (SK-OV-3 ovarian): > 76.9 µM; TGI (SK-MEL-28 melanoma): > 100 µM; TGI (COLO 205 colon): > 72 µM; TGI (MDA-MB-435): > 100 µM; TGI (RPMI-8226 leukemia): 768 nM; TGI (NCI-H226 lung): 66.7 µM; TGI (NCI/ADR-RES ovarian): 16.9 µM; TGI (KM12 colon): > 100 µM; TGI (NCI-H23 lung): > 100 µM; TGI (OVCAR-4 ovarian): > 100 µM; TGI (SF-295 CNS): 61.4 µM; TGI (BT-549 breast): > 100 µM; TGI (ACHN renal): 22.9 µM; TGI (A549 NSCLC): > 100 µM; TGI (SW-620 colon): > 100 µM; TGI (OVCAR-5 ovarian): 99.2 µM; TGI (HOP-62 NSCLC): > 51.2 µM; TGI (UACC-257 melanoma): 816 nM; TGI (K-562 leukemia): > 100 µM; TGI (PC-3 prostate): 59.8 µM; TGI (A498 renal): > 100 µM; TGI (CAKI-1 renal): > 100 µM; TGI (HOP-92 NSCLC): 570 nM; TGI (SR leukemia): > 100 µM; TGI (SNB-19 CNS): > 100 µM; TGI (786-0 renal): > 24.7 µM; TGI (NCI-H522 lung): > 100 µM; TGI (MDA-N): > 100 µM; TGI (SNB-75 CNS): 229 nM; TGI (HL-60(TB) leukemia): 1050 nM; TGI (MCF7 breast): > 100 µM; TGI (UACC-62 melanoma): > 34.8 µM; TGI (CCRF-CEM leukemia): 343 nM; TGI (SF-268 CNS): > 65.6 µM; TGI (NCI-H460 lung): 184 nM; TGI (OVCAR-8 ovarian): > 100 µM; TGI (DU-145 prostate): 38.4 µM; TGI (OVCAR-3 ovarian): 721 nM; TGI (IGROV1 ovarian): > 100 µM; TGI (EKVX NSCLC): > 100 µM; TGI (U251 CNS): 2770 nM; TGI (M14 melanoma): 12 µM; TGI (MOLT-4 leukemia): 18.9 µM

Q: Which TGI (HT29 colon) does the source give for `O=C(C#CP(=O)(O)c1ccccc1)c1ccccc1` here?
A: > 100 µM

Q: What about the TGI (HCT-116 colon) of the same compound?
A: > 100 µM

Q: What about the TGI (UO-31 renal) of the same compound?
A: 4.14 µM

Q: And the TGI (LOX IMVI melanoma)?
A: > 100 µM

Q: What about the TGI (HS 578T breast) of the same compound?
A: > 100 µM

Q: And the TGI (HCT-15 colon)?
A: > 100 µM

Q: And the TGI (SK-OV-3 ovarian)?
A: > 100 µM

Q: What about the TGI (SK-MEL-28 melanoma) of the same compound?
A: > 100 µM

Q: What about the TGI (TK-10 renal) of the same compound?
A: > 100 µM

Q: And the TGI (COLO 205 colon)?
A: > 100 µM

Q: What about the TGI (MDA-MB-435) of the same compound?
A: > 100 µM

Q: And the TGI (T-47D breast)?
A: > 100 µM

Q: What about the TGI (NCI/ADR-RES ovarian) of the same compound?
A: > 100 µM

Q: What about the TGI (KM12 colon) of the same compound?
A: > 100 µM

Q: What about the TGI (NCI-H23 lung) of the same compound?
A: > 100 µM

Q: And the TGI (OVCAR-4 ovarian)?
A: > 100 µM

Q: And the TGI (SF-295 CNS)?
A: > 100 µM

Q: And the TGI (ACHN renal)?
A: > 100 µM

Q: And the TGI (SK-MEL-5 melanoma)?
A: > 100 µM

Q: And the TGI (A549 NSCLC)?
A: > 100 µM

Q: What about the TGI (SW-620 colon) of the same compound?
A: > 100 µM

Q: And the TGI (OVCAR-5 ovarian)?
A: > 100 µM

Q: And the TGI (HCC-2998 colon)?
A: > 100 µM

Q: What about the TGI (HOP-62 NSCLC) of the same compound?
A: > 100 µM

Q: What about the TGI (UACC-257 melanoma) of the same compound?
A: > 100000 nM

Q: And the TGI (K-562 leukemia)?
A: > 100 µM

Q: And the TGI (PC-3 prostate)?
A: > 100 µM

Q: What about the TGI (A498 renal) of the same compound?
A: > 100 µM

Q: What about the TGI (CAKI-1 renal) of the same compound?
A: > 100 µM

Q: And the TGI (HOP-92 NSCLC)?
A: > 100000 nM

Q: And the TGI (SR leukemia)?
A: > 100 µM

Q: What about the TGI (SNB-19 CNS) of the same compound?
A: > 100 µM

Q: And the TGI (786-0 renal)?
A: > 100 µM

Q: What about the TGI (NCI-H522 lung) of the same compound?
A: > 100 µM

Q: What about the TGI (SK-MEL-2 melanoma) of the same compound?
A: > 100 µM

Q: What about the TGI (MDA-N) of the same compound?
A: > 100 µM

Q: And the TGI (SNB-75 CNS)?
A: > 100000 nM

Q: And the TGI (MCF7 breast)?
A: > 100 µM

Q: And the TGI (UACC-62 melanoma)?
A: > 100 µM

Q: And the TGI (SN12C renal)?
A: > 100 µM

Q: What about the TGI (SF-268 CNS) of the same compound?
A: > 100 µM

Q: What about the TGI (MALME-3M melanoma) of the same compound?
A: > 100 µM

Q: What about the TGI (NCI-H460 lung) of the same compound?
A: > 100000 nM

Q: What about the TGI (OVCAR-8 ovarian) of the same compound?
A: > 100 µM

Q: And the TGI (DU-145 prostate)?
A: > 100 µM

Q: What about the TGI (SF-539 CNS) of the same compound?
A: > 100 µM

Q: What about the TGI (OVCAR-3 ovarian) of the same compound?
A: > 100000 nM

Q: And the TGI (IGROV1 ovarian)?
A: > 100 µM

Q: What about the TGI (EKVX NSCLC) of the same compound?
A: > 100 µM

Q: What about the TGI (U251 CNS) of the same compound?
A: > 100000 nM

Q: What about the TGI (M14 melanoma) of the same compound?
A: > 100 µM
